Like-named read-outs stand apart in the source and are kept apart here.
Tests used:
[1] = biological target: T1, HDAC 4 (Homo sapiens, UniProt P56524); test: Enzyme HDAC inhibition assay; format: biochemical; settings: recombinant enzyme, Boc-Lys-(Tfa)-AMC; read-out: HDAC4 IC50 ± SD
T1 construct: purchased Reaction Biology Corp (Malvern, PA, USA) KDA-21-279
Source text: (§1) The human recombinant enzymes were ordered from Reaction Biology Corp (Malvern, PA, USA).

[2] = biological target: T2, HDAC 8 (Homo sapiens, UniProt Q9BY41); test: Enzyme HDAC inhibition assay; format: biochemical; settings: recombinant enzyme, Boc-Lys-(Tfa)-AMC; read-out: HDAC8 IC50 ± SD
T2 construct: purchased Reaction Biology Corp (Malvern, PA, USA) KDA-21-481
T2 sequence (Q9BY41 1-377): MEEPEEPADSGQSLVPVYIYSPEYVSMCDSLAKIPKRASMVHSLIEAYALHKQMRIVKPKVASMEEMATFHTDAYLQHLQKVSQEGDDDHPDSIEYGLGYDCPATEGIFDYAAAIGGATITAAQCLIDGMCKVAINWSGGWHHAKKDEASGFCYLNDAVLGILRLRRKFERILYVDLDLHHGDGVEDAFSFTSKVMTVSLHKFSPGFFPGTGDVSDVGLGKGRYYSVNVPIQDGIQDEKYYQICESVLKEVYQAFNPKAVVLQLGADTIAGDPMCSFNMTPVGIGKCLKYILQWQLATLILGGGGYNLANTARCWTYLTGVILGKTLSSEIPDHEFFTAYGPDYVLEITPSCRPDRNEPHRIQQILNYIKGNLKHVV
Source text: as §1

[3] = test system: caspase 3/7; test: Activation of caspase 3/7 (CellEvent, high content screening); format: cell-based, human; settings: single treatment, all four cell lines (J82, J82 cisR, T24, T24 LTT)
Description: Activation of caspase 3/7 was examined using the CellEvent Caspase-3/7 green detection reagent (Thermo Scientific, Wesel, Germany) according to the manufacturer’s instructions. The cells were seeded in 96-well-plates (Corning, Kaiserslautern, Germany) and treated with the indicated compounds for 48 h (J82 1600 c/w; J82 cisR 800 c/w; T24 1200 c/w; T24 LTT 3000 c/w). […] The supernatant was aspirated and a solution of CellEvent Caspase 3/7 green detection reagent (PBS, 1% heat inactivated fetal calf serum) was added to the cells for a final concentration of 2 µM. Hoechst 33342 (10 mg/mL in water, Sigma-Aldrich, Steinheim, Germany) was used for nuclei staining. The cells were incubated for 30 min at 37 °C and 5% CO2 before imaging by using the Thermo Fischer ArrayScan XTI high content screening (HCS) system with a 10 × magnification (Thermo Scientific, Wesel, Germany).

[4] = test system: BRDs; set-up: method as in PMID 34582215; settings: cited from earlier work
[5] = test system: HDAC 1-3 and 6; set-up: method as in PMID 34582215; settings: cited from earlier work
[6] = test system: J82 cisR; test: MTT cell viability assay; format: cell-based, human; settings: for IC50: read-out: IC50 ± SD
Description: (§2) The cell viability for determination of IC50 values and synergism studies was analyzed by MTT assay as previously described. […] For preincubation experiments, 1600 c/w (cells per well) for J82 and 1200 c/w for J82 cisR were used. After the incubation time, 25 µL MTT (3-(4,5-dimethylthiazol-2-yl)-2,5-diphenyltetrazolium bromide, Serva, Heidelberg, Germany) solution (5 mg/mL in phosphate-buffered saline) was added. The formazan was dissolved in 75 µL DMSO, and the absorption was measured at 540 nm and 690 nm with a microplate reader (ThermoFisher Multiskan, Thermo Scientific, Wesel, Germany).

[7] = test system: T24 LTT; test: MTT cell viability assay; format: cell-based, human; settings: for IC50: Homo sapiens, MTT, 72 h, compound alone, read-out: IC50 ± SD
Description: as §2

[8] = test system: J82; test: MTT cell viability assay; format: cell-based, human; settings: for IC50: read-out: IC50 ± SD
Description: as §2

[9] = test system: T24; test: MTT cell viability assay; format: cell-based, human; settings: for IC50: Homo sapiens, T-24, MTT, 72 h, compound alone, read-out: IC50 ± SD
Description: as §2

[10] = test system: J82; test: RT-qPCR gene expression; format: cell-based, human; settings: 48 h; ENT 0.316 µM; JQ1 1 µM; ENT + JQ1 0.316 + 1 µM
Source text: (§3) RNA was isolated using the RNeasy Mini Kit (Qiagen, Hilden, Germany). Subsequently, the RNA was transcribed into cDNA using the High-Capacity cDNA Reverse Transcription Kit (Thermo Scientific, Wesel, Germany). For an RT-PCR, GoTaq qPCR Master Mix (Promega, Fitchburg, WI, USA) and a CFX96 Real-Time System (BIO-RAD, Hercules, CA, USA) were used. The relative changes in gene expression were normalized to the control genes GUSB (beta-glucuronidase), TBP (TATA binding protein), and HPRT1 (hypoxanthine–guanine phosphoribosyltransferase) by Vandesompele method [54].

[11] = test system: J82 cisR; test: RT-qPCR gene expression; format: cell-based, human; settings: 48 h; ENT 0.316 µM; JQ1 0.1 µM; ENT + JQ1 0.316 + 0.1 µM
Source text: as §3

[12] = test system: HEK293; test: MTT cell viability assay, non-cancer cell line; format: cell-based, human; settings: for IC50: Homo sapiens, HEK293, MTT, 72 h, compound alone, read-out: IC50 ± SD
Description: as §2

[13] = test system: HBLAK; test: MTT cell viability assay, non-cancer cell line; format: cell-based, human
Description: as §2

[14] = set-up: method as in PMID 33723398, PMID 29733771, PMID 27063977, PMID 27063978, PMID 26341814; settings: patients; cited from earlier work
[15] = cited from earlier work
[16] = 7.5 µM of 20, without cisplatin (Figure 10, S17)
[17] = Homo sapiens, 72 h, MTT, 72 h, compound alone
[18] = Homo sapiens, J82, 72 h, MTT, 72 h, compound alone

T1 sequence (P56524 whole entry): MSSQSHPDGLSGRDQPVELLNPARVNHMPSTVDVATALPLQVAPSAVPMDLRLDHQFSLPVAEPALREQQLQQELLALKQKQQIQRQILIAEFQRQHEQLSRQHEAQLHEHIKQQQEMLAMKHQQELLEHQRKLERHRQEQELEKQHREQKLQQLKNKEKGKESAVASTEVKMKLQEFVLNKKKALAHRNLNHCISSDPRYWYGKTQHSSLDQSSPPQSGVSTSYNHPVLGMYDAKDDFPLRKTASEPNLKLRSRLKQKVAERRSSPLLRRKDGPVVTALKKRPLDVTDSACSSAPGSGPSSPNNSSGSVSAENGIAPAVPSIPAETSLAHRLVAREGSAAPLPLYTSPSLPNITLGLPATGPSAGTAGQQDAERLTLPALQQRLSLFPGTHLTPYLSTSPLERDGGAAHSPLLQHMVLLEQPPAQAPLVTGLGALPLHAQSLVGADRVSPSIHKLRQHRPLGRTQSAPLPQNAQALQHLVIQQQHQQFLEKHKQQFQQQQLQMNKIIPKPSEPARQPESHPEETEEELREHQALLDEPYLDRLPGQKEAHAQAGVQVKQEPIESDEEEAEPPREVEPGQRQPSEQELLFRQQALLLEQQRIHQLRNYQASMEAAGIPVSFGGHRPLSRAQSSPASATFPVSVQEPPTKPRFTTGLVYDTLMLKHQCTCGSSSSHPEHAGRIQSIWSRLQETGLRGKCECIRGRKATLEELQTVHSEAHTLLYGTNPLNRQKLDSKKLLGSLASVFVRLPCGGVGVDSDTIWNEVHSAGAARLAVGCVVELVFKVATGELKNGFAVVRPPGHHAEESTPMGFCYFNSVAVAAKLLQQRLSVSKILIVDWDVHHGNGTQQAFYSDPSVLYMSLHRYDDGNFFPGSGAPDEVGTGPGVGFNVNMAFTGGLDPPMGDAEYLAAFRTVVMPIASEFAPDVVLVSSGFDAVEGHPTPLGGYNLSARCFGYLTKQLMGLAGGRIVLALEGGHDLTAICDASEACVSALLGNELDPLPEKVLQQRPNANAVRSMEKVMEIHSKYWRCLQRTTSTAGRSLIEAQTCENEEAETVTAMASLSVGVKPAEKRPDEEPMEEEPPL

Structure (SMILES): CCc1c(C(=O)Nc2cc(/C=C/C(=O)NO)ccc2OC)[nH]c(C)c1C(C)=O [compound 20]
- IC50 [1]: 207 µM
- IC50 [2]: 6.03 µM
- caspase 3/7 activation [3]: only weakly activated
- inhibitory activity to BRDs [4]: single-digit micromolar range
- inhibitory activity against HDAC 1-3 and 6 [5]: sub-micromolar
- decrease in cell viability [6, 16]: 60–70%
- IC50 [6, 17]: 7 ± 0.49 µM
- decrease in cell viability [7, 16]: 60–70%
- IC50 [7]: 4.66 ± 0.41 µM
- decrease in cell viability [8, 16]: 60–70%
- IC50 [8, 18]: 7.17 ± 0.57 µM
- decrease in cell viability [9, 16]: 60–70%
- IC50 [9]: 6.95 ± 0.54 µM

Structure (SMILES): Nc1ccccc1NC(=O)c1ccc(CNC(=O)OCc2cccnc2)cc1 [Entinostat, entinostat]
- Bim gene expression, decadic logarithm of normalized expression [10]: -0.015
- FOXO1 gene expression, decadic logarithm of normalized expression [10]: -0.054
- FOXO3a gene expression, decadic logarithm of normalized expression [10]: -0.125
- p53 gene expression, decadic logarithm of normalized expression [10]: -0.125
- survivin gene expression, decadic logarithm of normalized expression [10]: -0.149
- Bim gene expression, decadic logarithm of normalized expression [11]: -0.110
- FOXO1 gene expression, decadic logarithm of normalized expression [11]: 0.087
- FOXO3a gene expression, decadic logarithm of normalized expression [11]: -0.030
- p21 gene expression, decadic logarithm of normalized expression [11]: 0.049
- p53 gene expression, decadic logarithm of normalized expression [11]: -0.202
- survivin gene expression, decadic logarithm of normalized expression [11]: -0.100
- IC50 [12]: 4.47 ± 0.77 µM
- reduction of cell viability ([12]; entinostat and/or JQ1 in the absence of cisplatin (Figure 15b,c)): up to 20%
- IC50 ([13]; Homo sapiens, MTT, 72 h, compound alone, read-out: IC50 ± SD): 1.45 ± 0.18 µM
- reduction of cell viability ([13]; entinostat and/or JQ1 in the absence of cisplatin (Figure 15a)): 60–65%
- SF ([6]; 48 h preincubation with the other inhibitor (ENT after 0.1 µM JQ1; JQ1 after 0.316 µM ENT), then another 72 h): 1.45
- SF ([6]; 72 h co-incubation with the other epigenetic inhibitor: ENT with 0.1 µM JQ1, JQ1 with 0.316 µM ENT): 1.97
- IC50 [6, 17]: 10.4 ± 0.94 µM
- IC50 ([6]; Homo sapiens, control of the 48 h preincubation scheme, compound 72 h): 9.38 ± 0.89 µM
- IC50 ([6]; MTT, 72 h, compound alone): 7.6 ± 0.59 µM
- IC50 [7]: 1.38 ± 0.1 µM
- SF ([8]; 48 h preincubation with the other inhibitor (ENT after 1 µM JQ1; JQ1 after 0.316 µM ENT), then another 72 h): 1.44
- SF ([8]; 72 h co-incubation with the other epigenetic inhibitor: ENT with 1 µM JQ1, JQ1 with 0.316 µM ENT): 1.68
- IC50 [8, 18]: 12.3 ± 1.08 µM
- IC50 ([8]; Homo sapiens, J82, control of the 48 h preincubation scheme, compound 72 h): 9.59 ± 0.81 µM
- IC50 ([8]; MTT, 72 h, compound alone): 10.4 ± 0.89 µM
- IC50 [9]: 5.68 ± 0.51 µM

Structure (SMILES): Cc1sc2c(c1C)C(c1ccc(Cl)cc1)=N[C@@H](CC(=O)Nc1ccc(O)cc1)c1nnc(C)n1-2 [OTX015]
- dose-limiting toxicities [14]: anemia, thrombocytopenia, fatigue, and hyperbilirubinemia
- IC50 [12]: 1.98 ± 0.42 µM
- bioavailability ([15]; OTX015: oral, in contrast to JQ1): better
- half-life ([15]; in vivo, OTX015 in contrast to JQ1): extended
- IC50 [6, 17]: 1.04 ± 0.13 µM
- IC50 [8, 18]: 18.9 ± 2.82 µM
